{
  "source": "patent US12616203B2",
  "about": "“Use of 3-isoxazolidinones compounds as selective herbicides” (FMC Corporation, priority 2014, dated 2026)",
  "key": {"Morningglory sp.": {"test_system": "Morningglory sp.", "assay": "Ex38 PRE 2,4-DC + pyroxasulfone, % control 28 DAT, Colby", "format": "in vivo, Ipomea spp", "source_text": "Pyroxasulfone plus fluthiacet-methyl (ANTHEM™, 23.3%) applied at 165 g ai/ha was included as a standard for comparison. […] Thereafter flats were watered and fertilized routinely."}, "Pennsylvania smartweed": {"test_system": "Pennsylvania smartweed", "assay": "Ex15 PRE 2,4-DC + S-metolachlor, % control 28 DAT, Colby", "format": "in vivo, Polygonum pensylvanicum", "source_text": "The weeds tested in this study were redroot pigweed (Amaranthus retroflexus, AMARE), Jimsonweed (Datura stramonium, DATST), black nightshade (Solanum nigrum, SOLNI), large crabgrass (Digitaria sanguinalis, DIGSA), Pennsylvania smartweed (Polygonum pensylvanicum, POLPY), horseweed (Conyza canadensis, ERICA), wild buckwheat (Polygonum convolvulus, POLCO). The crop tested was Corn (var. Viking).\nTo determine PRE efficacy and corn injury, five rates of each 2,4 DC (36.7% CS) and S-metolachlor (Dual II Magnum®, 82.4%) were applied either alone or as tank-mix. 2,4 DC was applied at 0, 125, 170, 210, or 250 g ai/ha and S-metolachlor was applied at 0, 267, 534, 801, or 1070 g ai/ha. Additional treatments included application of premix of pyroxasulfone plus fluthiacet-methyl (Anthem™ 23.3%) at 169.9 g ai/ha and tank-mix of mesotrione (Callisto®, 40%) at 123 g plus S-metolachlor at 1252 g. Treatments were applied just after the planting of large crabgrass, Jimsonweed, black nightshade, redroot pigweed, Pennsylvania smartweed, horseweed, wild buckwheat, and corn.\nFlats were watered and fertilized routinely after treatment application. Each treatment was replicated three times. […] Corn injury was rated for bleaching and stunting."}, "Annual bluegrass": {"test_system": "Annual bluegrass", "assay": "Ex34 PRE 2,4-DC + napropamide, % control, Colby", "format": "in vivo, Poa annua", "conditions": "28 DAT", "source_text": "(§1) Thereafter flats were watered and fertilized routinely."}, "Velvetleaf": {"test_system": "Velvetleaf", "assay": "Ex33 PRE 2,4-DC + fluthiacet-methyl + pyroxasulfone, % control 28 DAT, Colby", "format": "in vivo, Abutilon theophrasti", "source_text": "ANTHEM® (fluthiacet-methyl, 0.69% plus pyroxasulfone, 22.61%) was included as a standard at labeled rate, Fluthiacet-methyl at 4.9 g ai/ha and pyroxasulfone at 165 g ai/ha. […] The following weeds were screened, Palmer amaranth, Pennsylvania smartweed, velvetleaf, green foxtail, morningglory, Italian ryegrass, prickly sida, and yellow nutsedge. Crops screened were cotton, lentil, mung bean, bush bean, and cowpea. […] Thereafter flats were watered and fertilized routinely."}, "weeds; canola, and wheat": {"test_system": "weeds; canola, and wheat", "assay": "Ex30 PRE greenhouse", "format": "in vivo", "source_text": "Treatments were applied before the emergence of Italian ryegrass, wild oat, blackgrass, littleseed canarygrass, common chickweed, common lambsquarters, corn poppy, silky windgrass, redroot pigweed, wild mustard, annual bluegrass, canola, and wheat. […] Flats were watered and fertilized routinely after treatment application."}, "Blackgrass": {"test_system": "Blackgrass", "assay": "Ex34 PRE 2,4-DC + napropamide, % control, Colby", "format": "in vivo, Alopecurus myosuroides", "conditions": "28 DAT", "source_text": "as §1"}, "Sorghum": {"test_system": "Sorghum", "assay": "Ex46 PRE sorghum injury 7, 14, 21, 28 DAT", "conditions": "rate in the words", "procedure": "Treatments were applied to sorghum at the time of planting using Pennington soil. Each treatment was replicated four times. Soil was watered before and after application for herbicide activation. Plants were watered and fertilized routinely. […] Visual percent crop injury was recorded at 7, 14, 21, and 28 days after treatment using a scale of 0 (no injury) to 100 (complete plant death)."}, "Wild buckwheat": {"test_system": "Wild buckwheat", "assay": "Ex34 PRE 2,4-DC + napropamide, % control, Colby", "format": "in vivo, Polygonum convolvulus", "conditions": "28 DAT", "source_text": "as §1"}, "weeds; Wheat and canola": {"test_system": "weeds; Wheat and canola", "assay": "Ex27 PRE greenhouse", "format": "in vivo", "conditions": "weed and rate in the words", "source_text": "The weeds tested in this study were Italian ryegrass (Lolium perenne. multiflorum, LOLMU), wild mustard (Sinapis arvensis, SINAR), annual bluegrass (Poa annua POAAN), wild oat (Avena fatua, AVEFA), blackgrass (Alopecurus myosuroides, ALOMY), common lambsquarters (Chenopodium album […] (Phalaris minor, PHAMI), common chickweed (Stellaria media, STEME), corn poppy (Papaver rhoeas PAPRH). The crops tested were Wheat and canola. […] Treatments were applied before the emergence of Italian ryegrass, wild oat, blackgrass, littleseed canarygrass, common chickweed, common lambsquarters, corn poppy, wild mustard, annual bluegrass, canola, and wheat. […] Flats were watered and fertilized routinely after treatment application. […] Wheat and corn poppy were rated at 14 and 21 DAT only."}, "weeds": {"test_system": "weeds", "assay": "Ex24 PRE greenhouse", "format": "in vivo", "conditions": "weed and rate in the words", "source_text": "The tested weeds include Giant foxtail (Setaria faberi, SETFA), green foxtail (Setaria virdis, SETVI), yellow foxtail (Setaria pumila, SETLU), black nightshade (Solanum nigrum, SOLNI), kochia (Kochia scoparia, KCHSC), redroot pigweed (Amaranthus retroflexus, AMARE), common ragweed (Ambrosia artemisiifolia, AMBEL), barnyardgrass (Echinochloa crus-galli, ECHCG), large crabgrass (Digitaria sanguinalis, DIGSA).\nTo determine PRE efficacy, five levels of 2,4 DC-21 (36.7% CS) 0, 125, 170, 210, or 250 g ai/ha and five levels of pyroxasulfone (KIH485-85WG) 0, 50, 65, 80, or 95 g ai/ha were applied either alone or as tank-mix. Additional treatments consisted of premix of pyroxasulfone plus fluthiacet-methyl (Anthem™ 23.3%) at 169.9 g ai/ha, S-metolachlor (Dual II Magnum®, 82.4%) at 1388 g, and tank-mix of mesotrione (Callisto®, 40%) at 123 g plus S-metolachlor at 1252 g. […] Treatments were applied before the emergence of black nightshade, giant foxtail, green foxtail, yellow foxtail, large crabgrass, kochia, redroot pigweed, common ragweed, and bamyardgrass. […] Flats were watered and fertilized routinely after treatment application. Each treatment was replicated three times."}, "weeds; canola": {"test_system": "weeds; canola", "assay": "Ex34 PRE greenhouse", "format": "in vivo", "conditions": "rate in the words", "source_text": "as §1"}},
  "data": [
    {"smiles": "CC1(C)CON(Cc2ccc(Cl)cc2Cl)C1=O", "note": "[2,4-DC, 2-(2,4-dichlorophenyl)methyl-4,4-dimethyl-3-isoxazolidinone]", "values": [
      {"measurement": "X (% control, 2,4-DC alone)", "setting": "Morningglory sp.; PRE, 2,4-DC 50 g ai/ha", "result": 0, "unit": "%"},
      {"measurement": "X (% control, 2,4-DC alone)", "setting": "Morningglory sp.; PRE, 2,4-DC 100 g ai/ha", "result": 2, "unit": "%"},
      {"measurement": "X (% control, 2,4-DC alone)", "setting": "Morningglory sp.; PRE, 2,4-DC 200 g ai/ha", "result": 2, "unit": "%"},
      {"measurement": "X", "setting": "Pennsylvania smartweed; 2,4-DC alone 125 g ai/ha", "result": 38, "unit": "%"},
      {"measurement": "X", "setting": "Pennsylvania smartweed; 2,4-DC alone 170 g ai/ha", "result": 67, "unit": "%"},
      {"measurement": "X", "setting": "Pennsylvania smartweed; 2,4-DC alone 210 g ai/ha", "result": 80, "unit": "%"},
      {"measurement": "X", "setting": "Pennsylvania smartweed; 2,4-DC alone 250 g ai/ha", "result": 78, "unit": "%"},
      {"measurement": "X", "setting": "Annual bluegrass; 2,4-DC alone 31 g ai/ha", "result": 0, "unit": "%"},
      {"measurement": "X", "setting": "Annual bluegrass; 2,4-DC alone 63 g ai/ha", "result": 2, "unit": "%"},
      {"measurement": "X", "setting": "Annual bluegrass; 2,4-DC alone 125 g ai/ha", "result": 12, "unit": "%"},
      {"measurement": "X", "setting": "Annual bluegrass; 2,4-DC alone 250 g ai/ha", "result": 40, "unit": "%"},
      {"measurement": "X", "setting": "Annual bluegrass; 2,4-DC alone 375 g ai/ha", "result": 63, "unit": "%"},
      {"measurement": "X", "setting": "Velvetleaf; 2,4-DC alone 31 g ai/ha", "result": 7, "unit": "%"},
      {"measurement": "X", "setting": "Velvetleaf; 2,4-DC alone 63 g ai/ha", "result": 23, "unit": "%"},
      {"measurement": "X", "setting": "Velvetleaf; 2,4-DC alone 125 g ai/ha", "result": 27, "unit": "%"},
      {"measurement": "X", "setting": "Velvetleaf; 2,4-DC alone 250 g ai/ha", "result": 30, "unit": "%"},
      {"measurement": "X", "setting": "Velvetleaf; 2,4-DC alone 375 g ai/ha", "result": 89, "unit": "%"},
      {"measurement": "injury to canola", "setting": "weeds; canola, and wheat; at 100 g", "result": 11, "unit": "%"},
      {"measurement": "injury to wheat", "setting": "weeds; canola, and wheat; at 200 g", "result": 11, "unit": "%"},
      {"measurement": "weed control in words", "setting": "weeds; canola, and wheat; weed and rate in the words", "result": "alone gave control of pigweed, corn poppy, and Italian ryegrass at ≥200 g ai/ha, wild oat at 400 g, blackgrass at ≥100 g, and common chickweed at all rates"},
      {"measurement": "X", "setting": "Blackgrass; 2,4-DC alone 31 g ai/ha", "result": 10, "unit": "%"},
      {"measurement": "X", "setting": "Blackgrass; 2,4-DC alone 63 g ai/ha", "result": 18, "unit": "%"},
      {"measurement": "X", "setting": "Blackgrass; 2,4-DC alone 125 g ai/ha", "result": 84, "unit": "%"},
      {"measurement": "X", "setting": "Blackgrass; 2,4-DC alone 250 g ai/ha", "result": 93, "unit": "%"},
      {"measurement": "X", "setting": "Blackgrass; 2,4-DC alone 375 g ai/ha", "result": 97, "unit": "%"},
      {"measurement": "sorghum safety in words", "setting": "Sorghum", "result": "safe on sorghum at rates ranging from 31 to 125 g ai/ha irrespective of rating timings"},
      {"measurement": "X", "setting": "Wild buckwheat; 2,4-DC alone 31 g ai/ha", "result": 10, "unit": "%"},
      {"measurement": "X", "setting": "Wild buckwheat; 2,4-DC alone 63 g ai/ha", "result": 8, "unit": "%"},
      {"measurement": "X", "setting": "Wild buckwheat; 2,4-DC alone 125 g ai/ha", "result": 8, "unit": "%"},
      {"measurement": "X", "setting": "Wild buckwheat; 2,4-DC alone 250 g ai/ha", "result": 23, "unit": "%"},
      {"measurement": "X", "setting": "Wild buckwheat; 2,4-DC alone 375 g ai/ha", "result": 37, "unit": "%"},
      {"measurement": "weed control in words", "setting": "weeds; Wheat and canola", "result": "provided good control of blackgrass at 375 g; controlled Italian ryegrass at ≥125 g and common chickweed at all rates"},
      {"measurement": "weed control in words", "setting": "weeds", "result": "alone controlled kochia at 210 g ai/ha, barnyardgrass and large crabgrass at 125 g, giant foxtail and green foxtail at 170 g"},
      {"measurement": "weed control / crop safety in words", "setting": "weeds; canola", "result": "applied alone at 31.2 g ai/ha controlled common chickweed, at 125 g controlled common lambsquarters and injured canola, at 250 g controlled blackgrass and Italian ryegrass"}
    ]}
  ]
}
